Assay results reported in US7220720B2, “Melanin-concentrating hormone analogs” (Merk & Co., Inc., priority 2000, dated 2007).
Where two headings read alike, the source gives them in different places. Where a SMILES comes first, the peptide text is derived from it. Bridges are numbered along the chain shown (N, C = ends).

Experiments:
human MCH receptor [1] = biological target: T1, human MCH receptor (Homo sapiens, UniProt Q99705); test: Aequorin bioluminescence functional assay in 293-AEQ17 cells transfected with human MCH receptor; format: cell-based; set-up: expressed in transfected cells; host or cells: 293-AEQ17 (aequorin-expressing HEK-293 reporter line), transient lipofectamine transfection, pcDNA-3 vector; Activity Activation %: concentration or dose not given beside the values; conditions: for % Activation at 10 μM: Table 1, aequorin functional assay; for Activity Activation %: Table 5, position 10 modification
T1 sequence (Q99705 whole entry): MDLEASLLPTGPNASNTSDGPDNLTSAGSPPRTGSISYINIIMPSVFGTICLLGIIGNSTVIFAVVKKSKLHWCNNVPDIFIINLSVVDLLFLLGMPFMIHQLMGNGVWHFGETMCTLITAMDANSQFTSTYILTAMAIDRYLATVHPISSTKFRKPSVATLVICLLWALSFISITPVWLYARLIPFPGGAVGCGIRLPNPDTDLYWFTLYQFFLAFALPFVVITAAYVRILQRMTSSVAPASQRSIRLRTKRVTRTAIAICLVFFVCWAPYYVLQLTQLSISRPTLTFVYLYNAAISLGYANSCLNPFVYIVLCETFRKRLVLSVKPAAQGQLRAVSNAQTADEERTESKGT
Protocol: The aequorin bioluminescence assay is a reliable test for measuring the activity of G protein-coupled receptors that couple through the Gα protein subunit family consisting of Gq and Gll and leads to the activation of phospholipase C, mobilization of intracellular calcium and activation of protein kinase C.
Following approximately 40 hours of expression the apo-aequorin in the cells was charged for 4 hours with coelenterazine (10 μM) under reducing conditions (300 μM reduced glutathione) in ECB buffer (140 mM NaCl, 20 mM KCl, 20 mM HEPES-NaOH [pH=7.4], 5 mM glucose, 1 mM MgCl2, 1 mM CaCl2, 0.1 mg/ml bovine serum albumin).
The cells were harvested, washed once in ECB medium and resuspended to 500,000 cells/ml. 100 μl of cell suspension (corresponding to 5×10^4 cells) was then injected into the test plate containing MCH or MCH analogs, and the integrated light emission was recorded over 30 seconds, in 0.5 second units. 20 μL of lysis buffer (0.1% final Triton X-100 concentration) was then injected and the integrated light emission recorded over 10 seconds, in 0.5 second units. The “fractional response” values for each well were calculated by taking the ratio of the integrated response to the initial challenge to the total integrated luminescence including the Triton X-100 lysis response.

human MCH receptor [2] = biological target: T1, human MCH receptor; test: Radiolabeled MCH-R binding assay: inhibition of [125I]-human MCH (Phe13, Tyr19 substituted) binding to cell membranes (filter or SPA format); set-up: expressed in transfected cells
Protocol: Cell membranes were prepared on ice. Each T-75 flask was rinsed twice with 10 ml of Enzyme-free Cell Dissociation Buffer (Specialty Media, Lavallette, N.J.), and the cell monolayer was detached in an additional 10 ml of Enzyme-free Cell Dissociation Buffer by incubation at room temperature for 10 minutes. Dissociated cells were centrifuged (500×g for 10 minutes at 4° C.), resuspended in 5 ml homogenization buffer (10 mM Tris-HCl, pH 7.4, 0.01 mM Pefabloc, 10 μM phosphoramidon, 40 μg/ml bacitracin) and then homogenized using a glass homogenizer (10–15 strokes). The homogenate was centrifuged for 10 minutes (1,000×g at 4° C.). The resulting supernatant was then centrifuged at 38,700×g for 15 minutes at 4° C. Pelleted membranes were resuspended (passed through 25 gauge needle 5 times), snap-frozen on liquid nitrogen, and stored at −80° C. until use.
Binding was performed in a 96-well filter assay or Scintillation Proximity Assay (SPA)-based format using cell membranes from a stable CHO or HEK-293 cell line expressing the MCH receptor. For the filter assay, reactions were performed at 20° C. for 1 hour in a total volume of 0.2 ml containing: 0.05 ml of membrane suspension (˜3 μg protein), 0.02 ml of [^125I]-human MCH (Phe^13, Tyr^19 substituted; 30 pM), 0.01 ml of competitor and 0.12 ml of binding buffer (50 mM Tris-HCl, pH 7.4, 10 mM MgCl2, 2 mM EDTA, 200 μg/ml bacitracin, 1 μM phosphoramidon).
Bound radioligand was separated by rapid vacuum filtration (Packard Filtermate 96-well cell harvester) through GF/C filters pretreated for 1 hour with 1% polyethylenimine. After application of the membrane suspension to the filter, the filters were washed 3 times with 3 ml each of ice-cold 50 mM Tris-HCl, pH 7.4, 10 mM MgCl2, 2 mM EDTA, 0.04% Tween 20 and the bound radioactivity on the filters was quantitated by scintillation counting (TopCount device).
For the SPA-based assay, WGA-PVT beads (NEN Life Sciences Products) were resuspended in Dulbecco's PBS with calcium and magnesium (500 mg beads in 4 ml PBS). For each 96-well assay plate, 0.18 ml of beads was pre-coated with MCH receptor by mixing with 0.2 ml MCH receptor CHO cell membranes (˜0.2–4 mg protein) and 1.5 ml SPA assay buffer (50 mM Tris-HCl, pH 7.4, 10 mM MgCl2, 2 mM EDTA, 0.1% BSA, 12% glycerol). The suspension was mixed gently for 20 minutes, 12.3 ml of assay buffer and protease inhibitors were added (final concentration given): 2 μg/ml leupeptin, 10 μM phosphoramidon, 40 μg/ml bacitracin, 5 μg/ml aprotinin, 0.1 mM Pefabloc.
Coated beads were kept on ice until use. For each well, 0.145 ml of beads were added to Optiplate assay plates (Packard 6005190), followed by 0.002–0.004 ml of competitor and 0.05 ml of [^125I]-human MCH (Phe^13, Tyr^19 substituted; 30 pM). Binding reactions were allowed to proceed at room temperature for 3 hours. Quantitation was performed by scintillation counting (TopCount device).

[3] = Table 1, SPA based assay, read-out: Binding Assay IC50
[4] = Table 5, position 10 modification, read-out: Activity IC50

Activity Activation % (human MCH receptor [1]) [%] | IC50 (human MCH receptor [2]; [4]) [nM] | SMILES | % Activation at 10 μM (human MCH receptor [1]) [%] | IC50 (human MCH receptor [2]; [3]) [nM]
 |  | CSCC[C@@H]1NC(=O)[C@@H](NC(=O)[C@H](CCCNC(=N)N)NC(C)=O)CSSC[C@@H](C(=O)N[C@@H](Cc2ccc(O)cc2)C(N)=O)NC(=O)[C@@H]2CCCN2C(=O)[C@H](CCCNC(=N)N)NC(=O)[C@H](Cc2ccccc2)NC(=O)[C@H](C(C)C)NC(=O)[C@H](CCCNC(=N)N)NC(=O)CNC(=O)[C@H](CC(C)C)NC1=O [compound 8] (Ac-RCMLGRVFRPCY-NH2; disulfide 2-11) | 123 | 0.16
 |  | CSCC[C@@H]1NC(=O)[C@@H](NC(C)=O)CSSC[C@@H](C(N)=O)NC(=O)[C@@H]2CCCN2C(=O)[C@H](CCCNC(=N)N)NC(=O)[C@H](Cc2ccc(O)cc2)NC(=O)[C@H](C(C)C)NC(=O)[C@H](CCCNC(=N)N)NC(=O)CNC(=O)[C@H](CC(C)C)NC1=O [compound 9] | 74 | 1.6
 |  | CSCC[C@@H]1NC(=O)[C@@H](NC(=O)[C@H](CCCNC(=N)N)NC(=O)[C@H](CC(C)C)NC(=O)[C@H](CCSC)NC(=O)[C@H](CC(=O)O)NC(=O)[C@H](Cc2ccccc2)NC(=O)[C@@H](N)CC(=O)O)CSSC[C@@H](C(N)=O)NC(=O)[C@@H]2CCCN2C(=O)[C@H](CCCNC(=N)N)NC(=O)[C@H](Cc2ccc(O)cc2)NC(=O)[C@H](C(C)C)NC(=O)[C@H](CCCNC(=N)N)NC(=O)CNC(=O)[C@H](CC(C)C)NC1=O [compound 10] (H-DFDMLRCMLGRVYRPC-NH2; disulfide 7-16) | 99 | 0.3
4 | 700 | CSCC[C@@H]1NC(=O)[C@@H](NC(=O)[C@H](CCCNC(=N)N)NC(C)=O)CSSC[C@@H](C(N)=O)NC(=O)[C@@H]2CCCN2C(=O)[C@H](CCCNC(=N)N)NC(=O)[C@H](Cc2ccc(O)cc2)NC(=O)[C@H](C(C)C)NC(=O)[C@H](CCCNC(=N)N)NC(=O)[C@@H]2CCCN2C(=O)[C@H](CC(C)C)NC1=O [compound 50] |  | 
25 | 110 | CSCC[C@@H]1NC(=O)[C@@H](NC(=O)[C@H](CCCNC(=N)N)NC(C)=O)CSSC[C@@H](C(N)=O)NC(=O)[C@@H]2CCCN2C(=O)[C@H](CCCNC(=N)N)NC(=O)[C@H](Cc2ccc(O)cc2)NC(=O)[C@H](C(C)C)NC(=O)[C@H](CCCNC(=N)N)NC(=O)[C@H](CCCCN)NC(=O)[C@H](CC(C)C)NC1=O [compound 53] |  | 
12 | 190 | CSCC[C@@H]1NC(=O)[C@@H](NC(=O)[C@H](CCCNC(=N)N)NC(C)=O)CSSC[C@@H](C(N)=O)NC(=O)[C@@H]2CCCN2C(=O)[C@H](CCCNC(=N)N)NC(=O)[C@H](Cc2ccc(O)cc2)NC(=O)[C@H](C(C)C)NC(=O)[C@H](CCCNC(=N)N)NC(=O)[C@H](CCC(=O)O)NC(=O)[C@H](CC(C)C)NC1=O [compound 54] |  | 
